molecular target: T1, human vasopressin V1b receptor (Homo sapiens, UniProt P47901); assay: Vasopressin V1b receptor binding assay; settings: membranes from CHO-K1 cells with stably expressed human V1b receptors, 1.5 nM 3H-AVP displacement; with more than one stereogenic center: the diastereomer with stronger affinity
T1 construct: expressed in transfected cells; host or cells: CHO-K1 (cell line hV1b-3H2_CHO), membrane preparation
T1 sequence (P47901 1-424): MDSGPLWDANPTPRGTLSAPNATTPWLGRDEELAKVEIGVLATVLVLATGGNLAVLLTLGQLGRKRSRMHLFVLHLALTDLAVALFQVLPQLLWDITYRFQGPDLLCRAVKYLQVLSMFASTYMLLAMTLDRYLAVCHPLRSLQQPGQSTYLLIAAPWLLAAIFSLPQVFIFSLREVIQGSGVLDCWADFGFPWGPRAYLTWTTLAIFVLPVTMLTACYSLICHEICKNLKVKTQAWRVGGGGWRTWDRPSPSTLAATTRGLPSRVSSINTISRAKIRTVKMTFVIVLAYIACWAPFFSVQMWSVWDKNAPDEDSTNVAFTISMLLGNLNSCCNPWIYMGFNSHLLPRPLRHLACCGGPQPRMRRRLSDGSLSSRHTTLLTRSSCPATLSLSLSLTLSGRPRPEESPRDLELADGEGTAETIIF
Outline: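 Membranes bearing human V1b receptor incubated 60 min at room temperature in 50 mM Tris, 10 mM MgCl2, 0.1% BSA, pH 7.4, 2% DMSO, triplicate.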

Compound	Ki [nM]
CCOc1ccc(OC)cc1C1(N2CCC(N3CCNCC3)CC2)C(=O)N(S(=O)(=O)c2ccc(OC)cn2)c2ccc(C#N)cc21 (racemic) [Example 86, (±)-5-Cyano-3-(2-ethoxy-5-methoxyphenyl)-1-(5-methoxypyridine-2-sulfonyl)-3-(4-piperazin-1-ylpiperidin-1-yl)-2,3-dihydro-1H-indol-2-one]	< 10
CCOc1ccc(OC)cc1C1(N2CCN(c3ccnc(C)c3)CC2)C(=O)N(S(=O)(=O)c2ccc(Cl)c3cccnc23)c2ccc(C#N)cc21 (racemic) [Example 53, (±)-5-Cyano-1-(5-chloroquinoline-8-sulfonyl)-3-(2-ethoxy-5-methoxyphenyl)-3-[4-(2-methylpyridin-4-yl)piperazin-1-yl]-2,3-dihydro-1H-indol-2-one]	10 to 50
CCOc1ccc(OC)cc1C1(N2CCN(c3ccnc(C(C)C)c3)CC2)C(=O)N(S(=O)(=O)c2ccc(OC)cn2)c2ccc(C#N)cc21 (single isomer, unassigned; (+)) [Example 143, (+)-5-Cyano-3-(2-ethoxy-5-methoxy-phenyl)-3-[4-(2-isopropyl-pyridin-4-yl)-piperazin-1-yl]-1-(5-methoxy-pyridine-2-sulfonyl)-2,3-dihydro-1H-indol-2-one]	< 10
CCOc1nc(Cl)ccc1C1(N2CCN(c3ccncc3)CC2)C(=O)N(S(=O)(=O)c2ccc(OC)cc2OC)c2ccc(C#N)cc21 (racemic) [Example 29, (±)-5-Cyano-3-(6-chloro-2-ethoxypyridin-3-yl)-1-(2,4-dimethoxybenzenesulfonyl)-3-(4-pyridin-4-ylpiperazin-1-yl)-2,3-dihydro-1H-indol-2-one]	10 to 50
CCOc1nc(Cl)ccc1C1(N2CCN(c3ccncc3)CC2)C(=O)N(S(=O)(=O)c2ccc(C)cn2)c2ccc(C#N)cc21 (racemic) [Example 23, (±)-5-Cyano-3-(6-chloro-2-ethoxypyridin-3-yl)-1-(5-methylpyridine-2-sulfonyl)-3-(4-pyridin-4-ylpiperazin-1-yl)-2,3-dihydro-1H-indol-2-one]	10 to 50
CCOc1nc(Cl)ccc1C1(N2CCN(c3ccncc3)CC2)C(=O)N(S(=O)(=O)c2ccc(OC)cn2)c2ccc(C#N)cc21 (racemic) [Example 36, (±)-5-Cyano-3-(6-chloro-2-ethoxypyridin-3-yl)-1-(5-methoxypyridine-2-sulfonyl)-3-(4-pyridin-4-ylpiperazin-1-yl)-2,3-dihydro-1H-indol-2-one]	< 10
CCOc1c(OC)cccc1C1(N2CCN(c3ccnc(C(C)C)c3)CC2)C(=O)N(S(=O)(=O)c2ccc(OC)cn2)c2ccc(C#N)cc21 (racemic) [Example 173, (±)-5-Cyano-3-(2-ethoxy-3-methoxy-phenyl)-3-[4-(2-isopropyl-pyridin-4-yl)-piperazin-1-yl]-1-(5-methoxy-pyridine-2-sulfonyl)-2,3-dihydro-1H-indol-2-one]	< 10
CCOc1ccccc1C1(N2CCN(c3ccncc3C)CC2)C(=O)N(S(=O)(=O)c2cccc3cccnc23)c2ccc(C#N)cc21 (racemic) [Example 15, (±)-5-Cyano-3-(2-ethoxyphenyl)-3-[4-(3-methylpyridin-4-yl)-piperazin-1-yl]-1-(quinoline-8-sulfonyl)-2,3-dihydro-1H-indol-2-one]	10 to 50
O=C1N(S(=O)(=O)c2cccc3cccnc23)c2ccc(Cl)cc2C1(c1ccccn1)N1CCN(c2ccncc2)CC1 (racemic) [Example 8, (±)-5-Chloro-3-pyridin-2-yl-3-(4-pyridin-4-ylpiperazin-1-yl)-1-(quinoline-8-sulfonyl)-1,3-dihydroindol-2-one]	10 to 50
CCOc1cc(F)ccc1C1(N2CCN(c3ccnc(C)c3)CC2)C(=O)N(S(=O)(=O)c2ccc(OC)cn2)c2ccc(C#N)cc21 (racemic) [Example 144, (±)-5-Cyano-3-(2-ethoxy-4-fluoro-phenyl)-1-(5-methoxy-pyridine-2-sulfonyl)-3-[4-(2-methyl-pyridin-4-yl)-piperazin-1-yl]-2,3-dihydro-1H-indol-2-one]	< 10
COc1ccc(OC)c(C2(N3CCN(c4ccncc4)CC3)C(=O)N(S(=O)(=O)c3cccc4cccnc34)c3ccc(OC)cc32)c1 (racemic) [Example 59, (±)-3-(2,5-Dimethoxyphenyl)-5-methoxy-3-(4-pyridin-4-ylpiperazin-1-yl)-1-(quinoline-8-sulfonyl)-1,3-dihydroindol-2-one]	< 10
CCOc1ccc(C)cc1C1(N2CCN(c3ccncc3)CC2)C(=O)N(S(=O)(=O)c2ccc(OC)cn2)c2ccc(C#N)cc21 (racemic) [Example 169, (±)-5-Cyano-3-(2-ethoxy-5-methyl-phenyl)-1-(5-methoxy-pyridine-2-sulfonyl)-3-(4-pyridin-4-yl-piperazin-1-yl)-2,3-dihydro-1H-indol-2-one]	< 10
CCOc1ccccc1C1(N2CCN(c3ccnc(C)c3)CC2)C(=O)N(S(=O)(=O)c2ccc(OC)cn2)c2ccc(C#N)cc21 (racemic) [Example 79, (±)-5-Cyano-3-(2-ethoxyphenyl)-1-(5-methoxypyridine-2-sulfonyl)-3-[4-(2-methyl-pyridin-4-yl)piperazin-1-yl]-2,3-dihydro-1H-indol-2-one]	< 10
CCOc1ccc(CC)cc1C1(N2CCN(c3ccnc(C)c3)CC2)C(=O)N(S(=O)(=O)c2ccc(OC)c3cccnc23)c2ccc(C#N)cc21 (racemic) [Example 160, (±)-5-Cyano-3-(2-ethoxy-5-ethyl-phenyl)-1-(5-methoxy-quinoline-8-sulfonyl)-3-[4-(2-methyl-pyridin-4-yl)-piperazin-1-yl]-2,3-dihydro-1H-indol-2-one]	< 10
CCOc1nc(Cl)ccc1C1(N2CC3CN(c4ccncc4)CC3C2)C(=O)N(S(=O)(=O)c2ccc(OC)cn2)c2ccc(C#N)cc21 (racemic) [Example 148, (±)-5-Cyano-3-(6-chloro-2-ethoxy-pyridin-3-yl)-1-(5-methoxy-pyridine-2-sulfonyl)-3-(5-pyridin-4-yl-hexahydro-pyrrolo[3,4-c]pyrrol-2-yl)-2,3-dihydro-1H-indol-2-one]	10 to 50
COc1ccccc1C1(N2CCN(c3ccncc3)CC2)C(=O)N(S(=O)(=O)c2cccc3cccnc23)c2cc(C)ccc21 (racemic) [Example 39, (±)-3-(2-Methoxyphenyl)-6-methyl-3-(4-pyridin-4-ylpiperazin-1-yl)-1-(quinoline-8-sulfonyl)-1,3-dihydroindol-2-one]	10 to 50

From US8486931B2, “Substituted oxindole compounds” (Abbott GmbH & Co. KG, priority 2007, dated 2013)
